Here are results for three compounds from paper PMC7345279 (Antibiotics, 2020).

SMILES strings stand for the structures. “And” between values parts separate entries of the source, which are not always exact repeats. Identical values can stand only once. Like-named read-outs stand apart in the source and are kept apart here.

The subject of data set [1] is plasma proteins. As to conditions: cited from earlier work.
Data set [2] has as its target HSA (Homo sapiens, UniProt P02768). The data set can be described thus: Binding of FLU to HSA solutions (40 and 25 g/L), alone and with anticancer agents (ultrafiltration, LC-MS/MS). As to conditions: for % Unb / Total conc / Unb Conc: alone.
Data set [3] concerns α-1-acid glycoprotein (AGP). In words: Binding of FLU to AGP solutions (0.9 and […]), alone and with IMA (ultrafiltration, LC-MS/MS). As to conditions: for % Unb / Total conc / Unb Conc: alone.
Data set [4] has as its system human plasma proteins. The data set can be described thus: Unbound fraction / protein binding of FLU in pooled plasma, alone and with a second drug (ultrafiltration, LC-MS/MS). Particulars: for FLU bound %: Pooled Plasma; for %Unbound / Measured Unbound Conc in Plasma / Measured Total Conc in Plasma: pooled plasma, alone, listed as FLU alone.
Experiment in data set [5]: as above
As to conditions: human, plasma.

Chain of HSA (P02768 25-609): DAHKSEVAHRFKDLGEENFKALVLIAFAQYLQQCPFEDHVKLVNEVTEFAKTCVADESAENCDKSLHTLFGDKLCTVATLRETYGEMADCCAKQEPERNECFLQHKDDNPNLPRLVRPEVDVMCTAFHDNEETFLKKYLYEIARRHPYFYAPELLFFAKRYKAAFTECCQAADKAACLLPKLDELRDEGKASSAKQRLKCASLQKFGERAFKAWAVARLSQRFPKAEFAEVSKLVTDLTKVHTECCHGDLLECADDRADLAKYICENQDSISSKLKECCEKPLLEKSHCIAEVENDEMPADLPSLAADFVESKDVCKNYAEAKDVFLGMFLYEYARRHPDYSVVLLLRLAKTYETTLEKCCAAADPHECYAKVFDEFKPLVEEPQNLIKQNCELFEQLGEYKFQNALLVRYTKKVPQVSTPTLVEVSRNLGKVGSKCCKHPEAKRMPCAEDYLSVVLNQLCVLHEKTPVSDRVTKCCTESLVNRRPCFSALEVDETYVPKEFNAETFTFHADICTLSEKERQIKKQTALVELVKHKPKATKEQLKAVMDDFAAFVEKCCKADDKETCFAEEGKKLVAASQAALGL

With `O=c1[nH]cc(F)c(=O)[nH]1` [5-FU, 5-fluorouracil], in data set [1] (ref 63), the protein binding was 8–12%.

As for `Cc1ccc(NC(=O)c2ccc(CN3CCN(C)CC3)cc2)cc1Nc1nccc(-c2cccnc2)n1` [IMA, imatinib], the “bound to human plasma proteins” value in data set [1] (ref 54) was 95%.

As to `Cc1onc(-c2c(F)cccc2Cl)c1C(=O)N[C@@H]1C(=O)N2[C@@H]1SC(C)(C)[C@@H]2C(=O)O` [FLU, Flucloxacillin], the FLU bound % in data set [2] (Albumin (25 g/l), FLU 0.2 µg/mL) worked out at 94.91%; in data set [2] (Albumin (25 g/l), FLU 20 µg/mL), 93.49%; in data set [2] (Albumin (40 g/l), FLU 0.2 µg/mL), 94.39%; in data set [2] (Albumin (40 g/l), FLU 20 µg/mL) it was 93.98%; in data set [3] (AGPs (0.9 g/l), FLU 0.2 µg/mL) it was 60.92%; in data set [3] (AGPs ([…]), FLU 0.2 µg/mL), 67.96%. For the same compound, the FLU bound % in data set [3] (AGPs ([…]), FLU 20 µg/mL) is 79.38%; in data set [4] (FLU 0.2 µg/mL) it was 99.11%; in data set [4] (FLU 20 µg/mL) it was 98.85%. In addition, the “% Unb” value in data set [2] (HSA 25 g/L, FLU 0.2 µg/mL) is reported as 5.09%; in data set [2] (HSA 25 g/L, FLU 20 µg/mL) it was 6.51%; in data set [2] (HSA 40 g/L, FLU 0.2 µg/mL) it was 5.61%; in data set [2] (HSA 40 g/L, FLU 20 µg/mL), 6.02%; in data set [3] (AGP 0.9 g/L, FLU 0.2 µg/mL), 39.08%; in data set [3] (AGP 0.9 g/L, FLU 20 µg/mL) it was 22.11%. For the same compound, the “% Unb” value in data set [3] (AGP […], FLU 0.2 µg/mL) came to 32.04%; in data set [3] (AGP […], FLU 20 µg/mL), 20.62%. Besides, the “Total conc” value in data set [2] (HSA 25 g/L, FLU 0.2 µg/mL) was found to be 0.232 µg/mL; in data set [2] (HSA 25 g/L, FLU 20 µg/mL), 18.214 µg/mL; in data set [2] (HSA 40 g/L, FLU 0.2 µg/mL) it was 0.197 µg/mL; in data set [2] (HSA 40 g/L, FLU 20 µg/mL) it was 16.04 µg/mL; in data set [3] (AGP 0.9 g/L, FLU 0.2 µg/mL), 0.261 µg/mL; in data set [3] (AGP 0.9 g/L, FLU 20 µg/mL) it was 21.060 µg/mL. Also, the Total conc amounted to 0.266 µg/mL in data set [3] (AGP […], FLU 0.2 µg/mL) and 20.745 µg/mL in data set [3] (AGP […], FLU 20 µg/mL). Further, the “Unb Conc” value in data set [2] (HSA 25 g/L, FLU 0.2 µg/mL) is 0.012 µg/mL; in data set [2] (HSA 25 g/L, FLU 20 µg/mL), 1.182 µg/mL; in data set [2] (HSA 40 g/L, FLU 0.2 µg/mL) it was 0.011 µg/mL; in data set [2] (HSA 40 g/L, FLU 20 µg/mL), 0.966 µg/mL; in data set [3] (AGP 0.9 g/L, FLU 0.2 µg/mL), 0.1019 µg/mL; in data set [3] (AGP 0.9 g/L, FLU 20 µg/mL) it was 4.6563 µg/mL. Moreover, the “Unb Conc” value in data set [3] (AGP […], FLU 0.2 µg/mL) stood at 0.0852 µg/mL; in data set [3] (AGP […], FLU 20 µg/mL) it was 4.2773 µg/mL. The fraction unbound – broadly, free concentration divided by total concentration – at 30 min in data set [2] (human) fell in the range of 0.0561 to 0.0602; in data set [5] (protein binding of FLU, spiked pooled plasma, 37 °C, 30 min, range over tested FLU concentrations), 0.0059 to 0.0098. Further, in data set [1] (healthy patients), the “binding to plasma proteins” value is listed as 95–97%. In addition, in data set [1] (patients with normal HSA (>42 g/L)), the typical unbound fraction was 3–5%. In addition, in data set [1] (ref 13, 17, 38), the “bound to plasma proteins” value is reported as “more than 95%”. Also, the “protein binding of FLU in other studies” value is 95% in data set [1] (ref 36) and 93% in data set [1] (ref 38). Moreover, the “%Unbound” value was 0.7% and 0.78% in data set [4] (FLU 0.2 µg/mL); 0.98% and 0.76% and 0.73% in data set [4] (FLU 20 µg/mL). The “Measured Unbound Conc in Plasma” value in data set [4] (FLU 0.2 µg/mL) is 0.0016 µg/mL and 0.0023 µg/mL; in data set [4] (FLU 20 µg/mL) it was 0.1275 µg/mL and 0.21 µg/mL and 0.1766 µg/mL and 0.152 µg/mL. In addition, the “Measured Total Conc in Plasma” value in data set [4] (FLU spiked 0.2 µg/mL) was 0.24 µg/mL and 0.23 µg/mL and 0.28 µg/mL; in data set [4] (FLU spiked 20 µg/mL) it was 21.76 µg/mL and 21.18 µg/mL and 23.09 µg/mL and 20.722 µg/mL. This compound yielded an unbound share (fraction unbound) at 30 min, 0.2 µg/mL in data set [5] (%Unbound, pooled plasma, FLU 0.2 µg/mL, alone) of 0.0066. In data set [5] (%Unbound, pooled plasma, FLU 20 µg/mL, alone), this compound registered a fraction unbound at 30 min, 20 µg/mL of 0.0059.
